Our source for the EC50, melting point and IC50 values is patent US7625897B2, “Non-nucleoside reverse transcriptase inhibitors” (Roche Palo Alto LLC, priority 2005, dated 2009).

The subject of one data set is HIV. Put plainly: Anti-viral Assay (method of Pauwels et al.). The settings on record: Human immunodeficiency virus 1; TABLE 3. The class given is cell-based. As to the method: Anti-viral assays were carried out by the method described by R. E. Pauwels et al. J Virol. Methods 1988 20(4):309-322.
The target of another data set is HIV-1 RT (Human immunodeficiency virus type 1 group M subtype B, UniProt P03366). Put plainly: HIV Reverse Transcriptase Assay: Inhibitor IC50 determination. The class given is biochemical. As to the method:
HIV Reverse Transcriptase Assay: Inhibitor IC50 determination
HIV-1 RT assay was carried out in 96-well Millipore MultiScreen MADVNOB50 plates using purified recombinant enzyme and a poly(rA)/oligo(dT)16 template-primer in a total volume of 50 μL. The assay constituents were 50 mM Tris/HCl, 50 mM NaCl, 1 mM EDTA, 6 mM MgCl2, 5 μM dTTP, 0.15 μCi [^3H] dTTP, 5 μg/ml poly (rA) pre annealed to 2.5 μg/ml oligo (dT)16 and a range of inhibitor concentrations in a final concentration of 10% DMSO. Reactions were initiated by adding 4 nM HIV-1 RT and after incubation at 37° C. for 30 min, they were stopped by the addition of 50 μl ice cold 20% TCA and allowed to precipitate at 4° C. for 30 min. The precipitates were collected by applying vacuum to the plate and sequentially washing with 3×200 μl of 10% TCA and 2×200 μl 70% ethanol. Finally, the plates were dried and radioactivity counted in a Packard TopCounter after the addition of 25 μl scintillation fluid per well. IC50's were calculated by plotting % inhibition versus log10 inhibitor concentrations.

Setting [1] is: TABLE 3, read-out: RT inhibition IC50.
[2] abbreviates: TABLE I, purified recombinant enzyme, poly(rA)/oligo(dT)16 template-primer, read-out: HIV-RT IC50 RT.
Setting [3] is: TABLE II, purified recombinant enzyme, poly(rA)/oligo(dT)16 template-primer, read-out: HIV-RT IC50 RT.

Like-named read-outs stand apart in the source and are kept apart here.

The molecule `C[C@H]1NC(Cc2ccc(Cl)c(Oc3cc(C#N)cc(C#N)c3)c2F)=NNC1=O` [Compound I-5, 5-[6-Chloro-2-fluoro-3-((R)-5-methyl-6-oxo-1,4,5,6-tetrahydro-[1,2,4]triazin-3-ylmethyl)-phenoxy]-isophthalonitrile] showed a melting point of 81.5 to 100 °C. Further, the EC50 in the data set on HIV came to 12.2 nM. Besides, on HIV-1 RT (setting [1]), the IC50 came to 32 nM. For the same molecule, the IC50 on HIV-1 RT (setting [2]) came to 31.8 nM.
On the same counts, the results for `C[C@H]1NC(Cc2ccc(Cl)c(Oc3cc(Cl)cc(C#N)c3)c2F)=NNC1=O` [Compound I-15, 3-Chloro-5-[6-chloro-2-fluoro-3-((R)-5-methyl-6-oxo-1,4,5,6-tetrahydro-[1,2,4]triazin-3-ylmethyl)-phenoxy]-benzonitrile] are 158.6 to 159.9 °C, 8.3 nM, 11 nM and 11.1 nM.
For `C[C@H]1NC(Cc2ccc(Br)c(Oc3cc(C#N)cc(C(F)F)c3)c2F)=NNC1=O` [Compound I-25, 3-[6-Bromo-2-fluoro-3-((R)-5-methyl-6-oxo-1,4,5,6-tetrahydro-[1,2,4]triazin-3-ylmethyl)-phenoxy]-5-difluoromethyl-benzonitrile], the melting point was in the range of 231.5 to 233 °C. In addition, the IC50 at HIV-1 RT (setting [2]) was found to be 11.7 nM.
The like results for `C[C@H]1NC(Cc2ccc(Br)c(Oc3cc(Cl)cc(C#N)c3)c2F)=NNC1=O` [Compound I-26] were, in that order, 178.2 to 179 °C and 6.6 nM.
On the same counts, the results for `N#Cc1cc(Cl)cc(Oc2c(Cl)ccc(CC3=NNC(=O)CN3)c2F)c1` [Compound I-28] are 177.6 to 178 °C and 143 nM.
For `N#Cc1cc(Cl)cc(Oc2c(Cl)ccc(CC3=NNC(=O)[C@@H](CO)N3)c2F)c1` [Compound I-30], the melting point lay in the range of 112.5 to 114 °C. Further, on HIV-1 RT (setting [2]), the IC50 was 418 nM.
`Cc1nc(Cc2ccc(Cl)c(Oc3cccc(C#N)c3)c2)n[nH]c1=O` [II-2, 3-[2-Chloro-5-(5-methyl-6-oxo-1,6-dihydro-[1,2,4]triazin-3-ylmethyl)-phenoxy]-benzonitrile] had a melting point of 145.3 to 145.8 °C. The half-inhibitory concentration (IC50) at HIV-1 RT (setting [3]) is 206 nM.
The like results for `O=c1[nH]nc(Cc2ccc(Cl)c(Oc3cccc(Br)c3)c2)nc1-c1ccccc1` [II-3, 3-[3-(3-Bromo-phenoxy)4-chloro-benzyl]-5-phenyl-1H-[1,2,4]triazin-6-one] were, in that order, 59.8 to 63.9 °C and 346 nM.
In the case of `Cc1nc(Cc2ccc(Cl)c(Oc3cc(Br)cc(Br)c3)c2F)n[nH]c1=O` [II-4, 3-[4-Chloro-3-(3,5-dibromo-phenoxy)-2-fluoro-benzyl]-5-methyl-1H-[1,2,4]triazin-6-one], the melting point is 180.9 to 183.3 °C. Further, the concentration for half-maximal inhibition (IC50) at HIV-1 RT (setting [3]) stood at 137 nM.
The like results for `Cc1nc(Cc2ccc(Cl)c(Oc3cc(C#N)cc(C#N)c3)c2F)n[nH]c1=O` [II-5, 5-[6-chloro-2-fluoro-3-(5-methyl-6-oxo-1,6-dihydro-[1,2,4]triazin-3-ylmethyl)-phenoxy]-isophthalonitrile] were, in that order, 194.7 to 197.4 °C and 432 nM.

What is called EC50 is the concentration needed to bring the measured effect to its halfway point. Lower therefore signals greater potency. Broadly, the melting point is the temperature, or range, at which the solid turns liquid. As a reminder, the IC50 is the concentration at which inhibition is half-maximal.
